This note sets out measurements from US20250302799A1, “PHARMACEUTICAL COMPOSITION CONTAINING FRAXETIN FOR PREVENTION OR TREATMENT OF ENDOMETRIOSIS” (Research & Business Foundation Sungkyunkwan University, priority 2024, published 2025).

Holding throughout (type): cell-based, human
Data set [1] has as its system End1/E6E7 cells. Description: Western blot analysis of protein expression and phosphorylation. On the procedure:
To analyze protein expression related to the development of endometriosis following fraxetin treatment, the inventors conducted western blot analysis.
Briefly, endometrial cells were treated with fraxetin in a dose-dependent manner or in combination with signaling pathway inhibitors. Total proteins were extracted from the treated cells, and protein quantification was performed using the Bradford protein assay (Bio-Rad, Hercules, CA, USA). The extracted proteins were then denatured at 95° C. for 5 minutes and subjected to electrophoresis on a 10% SDS/PAGE gel before being transferred to a nitrocellulose membrane. The membrane was subsequently incubated with primary and secondary antibodies, and target protein expression was analyzed using chemiluminescence detection reagents (Supersignal West Pico, Pierce, Rockford, IL, USA) with the ChemiDoc EQ system and Quantity One software (Bio-Rad).

Data set [2] relates to End1/E6E7 cells. Description: Apoptosis by Annexin V and propidium iodide staining. The following applies: End1/E6E7, with tiRNA^HisGTG inhibitor. As for the experimental part:
(§1) To assess the apoptosis-inducing effect of fraxetin in endometrial cells, the inventors used a FITC Annexin V Apoptosis Detection Kit I (BD Sciences).
(§2) First, VK2/E6E7 and End1/E6E7 cells were cultured in 6-well plates, treated with fraxetin in a dose-dependent manner (0 μM, […], 10 μM, 20 µM, 50 μM, 100 μM), and incubated for 48 hours at 37° C. in a 5% CO2 incubator. The cells were then detached using trypsin, washed with PBS, and mixed slowly with 1 mL of 1X binding buffer. After centrifugation, the cell pellet was resuspended in 200 μL of 1X binding buffer. The suspension (100 μL) was transferred to a 1.5 mL brown tube, and 5 μL of Annexin V and PI (propidium iodide) were added, followed by staining at room temperature for 15 minutes. After adding 400 μL of 1X binding buffer, the stained solution was transferred to a 5 mL FACS tube, and the number of apoptotic cells was measured by analyzing fluorescence intensity using flow cytometry.

Data set [3] has as its system VK2/E6E7 cells. The description is as above. The note with it: VK2/E6E7, with tiRNA^HisGTG inhibitor. As for the experimental part:
as §1, §2

The test system of data set [4] is End1/E6E7 cells. Description: Mitochondrial membrane potential by JC-1 staining. The following applies: End1/E6E7, with tiRNA^HisGTG inhibitor. As for the experimental part: To examine changes in mitochondrial membrane potential (MMP) in endometrial cells induced by fraxetin, the inventors used a mitochondria staining kit (Cat no: CS0390, Sigma-Aldrich) to measure MMP.
In brief, End1/E6E7 and […] endometrial cell lines were cultured in 6-well plates, treated with fraxetin in a dose-dependent manner (0 μM, 5 μM, 10 μM, 20 μM, 50 μM, 100 μM), and incubated at 37° C. in a 5% CO2 incubator for 48 hours. Afterward, the cells were detached using trypsin, centrifuged to obtain cell pellets, resuspended in JC-1 staining solution, and incubated at 37° C. in a 5% CO2 incubator for 20 minutes. The stained cells were centrifuged again, washed with 1X JC-1 staining buffer, and analyzed using flow cytometry to assess changes in mitochondrial membrane potential.

Data set [5] relates to End1/E6E7 cells. Description: BrdU cell proliferation assay. The note with it: End1/E6E7, 48 hours. As for the experimental part: (§3) To examine the effects of fraxetin on cell proliferation, the inventors performed a BrdU cell proliferation assay.
(§4) First, 5×10^3 cells of VK2/E6E7, End1/E6E7, and T-HESC were each distributed in 100 μL of medium in 96-well plates.
(§5) Fraxetin was then administered in a dose-dependent manner (0μM, 5 μM, 10 μM, 20 uM, 50 μM, 100 uM) and cultured for 48 hours, followed by the BrdU assay using a BrdU kit (Cat No: 1167229001, Roche) according to the manufacturer's instructions.
(§6) After 48 hours of incubation, 10 μM BrdU (Bromodeoxyuridine) was added to each well and incubated at 37° C. in a 5% CO2 incubator for 2 hours. The cells were then fixed, reacted with anti-BrdU-POD solution at room temperature for 90 minutes, and washed three times. Finally, 100 μL of 3, 3′, 5, 5′-tetramethylbenzidine substrate was added, and absorbance was measured at wavelengths of 370 nm and 492 nm to analyze cell proliferation.

Data set [6] concerns VK2/E6E7 cells. The data set is described as follows: BrdU cell proliferation assay. The note with it: VK2/E6E7, 48 hours. On the procedure: as §3, §4, §5, §6
Data set [7] deals with End1/E6E7 cells. Description: tiRNA expression by real-time PCR. The following applies: End1/E6E7, inhibitor 40 nM transfected. As for the experimental part:
(§7) To confirm the expression of tiRNA (tRNA-derived stress-induced RNAs) associated with the development of endometriosis, the inventors conducted real-time PCR.
(§8) First, information on candidate tiRNA sequences and mature tRNA sources was obtained from MINTbase (https://cm.jefferson.edu/MINTbase/). miRNA CDNA synthesis was performed using a cDNA kit (Agilent Technologies) to confirm tiRNA expression, with U6 snRNA used for normalization. For transfection of the tiRNA^His GTG inhibitor (5′-AACCGAGAGUACUAACCACUAUACGAUCACCGC-3′) (40 nM), Lipofectamine 2000 was used in Opti-MEM.

In data set [8] the test system is VK2/E6E7 cells. Description: tiRNA expression by real-time PCR. The following applies: VK2/E6E7, inhibitor 40 nM transfected. As for the experimental part: as §7, §8
For data set [9], the system named is VK2/E6E7 cells. Description: Mitochondrial membrane potential by JC-1 staining. The note with it: VK2/E6E7, with tiRNA^HisGTG inhibitor.
For data set [10], the system named is End1/E6E7 cells. Description: ROS generation by DCFH-DA flow cytometry. As for the experimental part: (§9) To assess the inhibitory effect of fraxetin on ROS generation in endometrial cells, the inventors used flow cytometry to measure ROS levels. In brief, endometriosis cells were stained with DCFH-DA (final concentration 10 μM) for 30 minutes and treated with 50 μM fraxetin in experimental groups, with or without 2 mM N-acetylcysteine (NAC; Cat No. A0737, Sigma), in a 37° C. incubator. Afterward, the cells were washed with PBS, and ROS levels were detected by measuring fluorescence DCF via flow cytometry.

For data set [11], the system named is VK2/E6E7 cells. The data set is described as follows: ROS generation by DCFH-DA flow cytometry. On the procedure:
as §9

Data set [12] has as its system End1/E6E7 cells. Description: Cell viability with signaling pathway inhibitors alone or combined with fraxetin. The note with it: wortmannin 1 μM, U0126 20 μM. On the procedure:
(§10) The AKT inhibitor wortmannin (1 μM), ERK1/2 inhibitor U0126 (20 μM), and JNK inhibitor SP600125 (20 μM) were used.

In data set [13] the test system is VK2/E6E7 cells. The data set is described as above. The following applies: wortmannin 1 μM, U0126 20 μM. As for the experimental part:
as §10

On to `COC[C@H]1OC(=O)c2coc3c2[C@@]1(C)C1=C(C3=O)[C@@H]2CCC(=O)[C@@]2(C)C[C@H]1OC(C)=O` [wortmannin, reference compound], for which the JNK phosphorylation result with End1/E6E7 cells [1] (End1/E6E7, wortmannin 1 μM) was “no significant effect”.

For “tiRNA^HisGTG inhibitor: tiRNA^His GTG inhibitor (5′-AACCGAGAGUACUAACCACUAUACGAUCACCGC-3′), 40 nM, transfected with Lipofectamine 2000 (AACCGAGAGUACUAACCACUAUACGAUCACCGC; chemistry not given here) [reference compound]”, the fraxetin-induced apoptosis entry with End1/E6E7 cells [2] and in the data set on VK2/E6E7 cells [3] was “inhibited” in each case. Besides, the “fraxetin-induced MMP loss” value with End1/E6E7 cells [4] and in the data set on VK2/E6E7 cells [9] was “significantly mitigated” throughout. Also, the “cell proliferation, sequential treatment with fraxetin” value with End1/E6E7 cells [5] and in the data set on VK2/E6E7 cells [6] was “decreased” each time. Further, the “tiRNA^HisGTG mRNA expression” value with End1/E6E7 cells [7] and in the data set with VK2/E6E7 cells [8] was “decreased” each time.

In the case of `C[C@]12CCC3=C4CCC(=O)C=C4CC[C@H]3[C@@H]1CC[C@@]2(O)CC#N` [dienogest, reference compound], the “relative ROS generation” value in the data set with End1/E6E7 cells [10] (End1/E6E7, Example 7 comparison fraxetin vs dienogest) was “did not show significant changes”; with VK2/E6E7 cells [11] (VK2/E6E7, Example 7 comparison fraxetin vs dienogest), “did not show significant changes”.

As to `CC(=O)N[C@@H](CS)C(=O)O` [NAC, N-acetylcysteine, reference compound], the “fraxetin-induced increase of ROS generation under co-treatment” value is reported as “mitigated” with End1/E6E7 cells [10] (End1/E6E7, 2 mM NAC) and “mitigated” with VK2/E6E7 cells [11] (VK2/E6E7, 2 mM NAC).

Turning to `N#CC(=C(/N)Sc1ccccc1N)/C(C#N)=C(\N)Sc1ccccc1N` [U0126], the “cell viability, combined treatment with fraxetin compared to inhibitor alone” value in the data set on End1/E6E7 cells [12] and with VK2/E6E7 cells [13] was “marked decrease” throughout. Besides, the “S6 phosphorylation, combined with fraxetin compared to fraxetin alone” value in the data set on End1/E6E7 cells [1] (End1/E6E7, inhibitor 20 μM) is “further downregulated”.
